Measured values reported in patent US9085587B2, “Inhibitors of hepatitis C virus” (priority 2010, dated 2015).
Like-named read-outs stand apart in the source and are kept apart here.

What was measured:
Type in all cases: cell-based
HCV NS5B C316Y mutant = target: T1, HCV NS5B C316Y mutant (Hepatitis C virus genotype 1b, UniProt Q9WMX2, C2735Y); assay: Activity against HCV NS5B C316Y mutant; conditions: for EC50: read-out: Inhibiton of HCV NS5B C316Y mutant
T1 construct: HCV NS5B C316Y or S365A mutant as indicated; expressed in transfected cells
T1 sequence (Q9WMX2 2420-3010 C2735Y): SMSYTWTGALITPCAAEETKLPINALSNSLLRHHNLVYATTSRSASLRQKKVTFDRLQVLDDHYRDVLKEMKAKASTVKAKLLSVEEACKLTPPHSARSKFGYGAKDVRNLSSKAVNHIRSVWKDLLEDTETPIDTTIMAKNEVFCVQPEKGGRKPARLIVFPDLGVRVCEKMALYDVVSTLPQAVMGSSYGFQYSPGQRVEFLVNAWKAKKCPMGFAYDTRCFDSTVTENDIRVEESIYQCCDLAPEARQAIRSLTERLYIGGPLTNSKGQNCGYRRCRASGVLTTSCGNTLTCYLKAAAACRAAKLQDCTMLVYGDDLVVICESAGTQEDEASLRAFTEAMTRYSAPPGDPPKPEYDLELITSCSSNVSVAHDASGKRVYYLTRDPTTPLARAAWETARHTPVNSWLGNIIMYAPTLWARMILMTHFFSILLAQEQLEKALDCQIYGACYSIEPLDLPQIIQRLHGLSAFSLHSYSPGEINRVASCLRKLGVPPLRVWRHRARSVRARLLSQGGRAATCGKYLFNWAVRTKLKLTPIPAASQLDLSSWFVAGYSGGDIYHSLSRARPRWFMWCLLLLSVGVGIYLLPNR
Description: (§1) The biological activity against HCV 1b, 1a, or 2a is indicated as being *, **, ***, or ****, which corresponds to EC50 ranges of EC50>1000 nM, 100 nM<EC50≦1000 nM, 10 nM<EC50≦100 nM, or EC50≦10 nM, respectively. The biological activity against HCV NS5B C316Y or S365A mutant is indicated as being †, ††, or \\\, which corresponds to EC50 ranges of EC50>1000 nM, 200 nM<EC50≦1000 nM, […], respectively.

HCV NS5B S365A mutant = target: T2, HCV NS5B S365A mutant (Hepatitis C virus genotype 1b, UniProt Q9WMX2, S2784A); assay: Activity against HCV NS5B S365A mutant; conditions: for EC50: read-out: Inhibiton of HCV NS5B S365A mutant
T2 construct: HCV NS5B C316Y or S365A mutant as indicated; expressed in transfected cells
T2 sequence (Q9WMX2 2420-3010 S2784A): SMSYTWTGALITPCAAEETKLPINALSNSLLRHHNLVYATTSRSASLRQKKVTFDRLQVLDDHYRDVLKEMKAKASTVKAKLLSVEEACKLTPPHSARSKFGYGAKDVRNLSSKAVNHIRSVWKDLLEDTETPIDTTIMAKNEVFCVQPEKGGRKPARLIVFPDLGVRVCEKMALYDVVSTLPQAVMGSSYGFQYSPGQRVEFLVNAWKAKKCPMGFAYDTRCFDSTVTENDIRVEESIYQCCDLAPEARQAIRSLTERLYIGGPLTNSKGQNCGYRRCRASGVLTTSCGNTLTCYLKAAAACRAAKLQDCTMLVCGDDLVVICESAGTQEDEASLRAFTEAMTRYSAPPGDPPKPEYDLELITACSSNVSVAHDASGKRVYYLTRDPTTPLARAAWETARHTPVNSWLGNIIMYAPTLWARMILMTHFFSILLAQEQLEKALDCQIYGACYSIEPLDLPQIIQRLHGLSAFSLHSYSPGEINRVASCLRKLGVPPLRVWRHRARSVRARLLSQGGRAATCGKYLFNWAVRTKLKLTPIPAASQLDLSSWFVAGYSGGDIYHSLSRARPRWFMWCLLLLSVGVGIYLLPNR
Description: as §1

[1] = test system: HCV 1b replication (bicistronic genotype 1b replicon in Huh 7 cells); assay: HCV 1b replicon assay (1b_Huh-Luc/Neo-ET cell line, luciferase readout); conditions: Hepatitis C virus, Huh-7
Description: Biological activity of the compounds of the invention was determined using an HCV replicon assay. The 1b_Huh-Luc/Neo-ET cell line persistently expressing a bicistronic genotype 1b replicon in Huh 7 cells was obtained from ReBLikon GMBH. This cell line was used to test compound inhibition using luciferase enzyme activity readout as a measurement of compound inhibition of replicon levels.
On Day 1 (the day after plating), each compound was added in triplicate to the cells. Plates were incubated for 72 hours prior to running the luciferase assay. Enzyme activity was measured using a Bright-Glo Kit (cat. number E2620) manufactured by Promega Corporation. The following equation was used to generate a percent control value for each compound. % Control=(Average Compound Value/Average Control)*100
The EC50 value was determined using GraphPad Prism and the following equation: Y=Bottom+(Top-Bottom)/(1+10^((Log IC50−X)*HillSlope))
EC50 values of compounds were repeated several times in the replicon assay.

HCV 2a = HCV 2a replicon assay (similar to the 1b replicon assay); conditions: Hepatitis C virus; cell marked (HCV genotype 2a replicon); read-out: Inhibition of HCV genotype 2a replicon
Description: (§2) Compounds of the invention can inhibit multiple genotypes of HCV selected but not limited to 1a, 1b, 2a, 3a, and 4a. The EC50s are measured in the corresponding replicon assays that are similar to HCV 1b replicon assay as described above.
as §1

HCV 1a = HCV 1a replicon assay (similar to the 1b replicon assay); conditions: Hepatitis C virus; cell marked (HCV genotype 1a replicon); read-out: Inhibition of HCV genotype 1a replicon
Description: as §2, §1

[2] = numeric EC50, genotype 1b replicon, read-out: Inhibition of HCV genotype 1b replicon (EC50)
[3] = 1b_Huh-Luc/Neo-ET cell line, 72 hours, luciferase readout, read-out: EC50, concentration effective to produce a half-maximal inhibition of HCV 1b replication
[4] = class symbols, genotype 1b replicon, read-out: Inhibition of HCV genotype 1b replicon

| SMILES | EC50 [1, 3] | EC50 [1, 4] | further results |
| --- | --- | --- | --- |
| CNC(=O)c1c(-c2ccc(F)cc2)oc2cc3c(cc12)[C@H](C)CCCN3S(C)(=O)=O (single isomer, unassigned) [Compound B15] | – | – | Inhibiton of HCV NS5B C316Y mutant (HCV NS5B C316Y mutant): †††; Inhibiton of HCV NS5B S365A mutant (HCV NS5B S365A mutant): †††; EC50 [1, 2]: 5.5 nM |
| CNC(=O)c1c(-c2ccc(Oc3ccc(F)cc3)cc2)oc2cc3c(cc12)[C@H](C)OC(C)(C)CN3S(C)(=O)=O (single isomer, unassigned) [Compound B176] | – | – | EC50 (HCV NS5B C316Y mutant): 200 to 1000 nM; EC50 (HCV NS5B S365A mutant): 200 to 1000 nM |
| CNC(=O)c1c(-c2ccc(F)cc2)oc2cc3c(cc12)[C@H](C)N(C)C(=O)CN3S(C)(=O)=O (single isomer, unassigned) [Compound B179] | – | – | EC50 (HCV NS5B S365A mutant): 200 to 1000 nM |
| CNC(=O)c1c(-c2ccc(F)cc2)oc2cc3c(cc12)[C@H](C)OC(C)(C)CN3S(C)(=O)=O (single isomer, unassigned) [Compound B184] | – | – | EC50 (HCV NS5B C316Y mutant): > 1000 nM; EC50 (HCV NS5B S365A mutant): 200 to 1000 nM |
| CNC(=O)c1c(-c2ccc(Oc3ccc(F)cc3)cc2)oc2cc3c(cc12)[C@H](C)OC1(CC1)CN3S(C)(=O)=O (single isomer, unassigned) [Compound B187] | – | – | EC50 (HCV NS5B C316Y mutant): > 1000 nM; EC50 (HCV NS5B S365A mutant): > 1000 nM |
| CNC(=O)c1c(-c2ccc(F)cc2)oc2cc3c(cc12)[C@H](C)OC1(CC1)CN3S(C)(=O)=O (single isomer, unassigned) [Compound B193] | – | – | EC50 (HCV NS5B C316Y mutant): 200 to 1000 nM; EC50 (HCV NS5B S365A mutant): 200 to 1000 nM |
| CNC(=O)c1c(-c2ccc(F)cc2)oc2cc3c(cc12)C=CCCN3S(C)(=O)=O [Compound B12] | – | – | EC50 (HCV 2a): 100 to 1000 nM |
| CS(=O)(=O)N1CCCCc2cc3c(C(N)=O)c(-c4ccc(F)cc4)oc3cc21 [Compound B13] | – | – | EC50 (HCV 2a): > 1000 nM |
| CN(C)C(=O)c1c(-c2ccc(F)cc2)oc2cc3c(cc12)CCCCN3S(C)(=O)=O [Compound B14] | – | – | EC50 (HCV 2a): > 1000 nM |
| CS(=O)(=O)N1CCCCc2cc3c(C(=O)NC4CC4)c(-c4ccc(F)cc4)oc3cc21 [Compound B41] | – | – | EC50 (HCV 2a): > 1000 nM |
| CN(C)CCNC(=O)c1c(-c2ccc(F)cc2)oc2cc3c(cc12)CCCCN3S(C)(=O)=O [Compound B42] | – | – | EC50 (HCV 2a): > 1000 nM |
| CS(=O)(=O)N1CCCCc2cc3c(C(=O)NCC#N)c(-c4ccc(F)cc4)oc3cc21 [Compound B43] | – | – | EC50 (HCV 2a): > 1000 nM |
| CNC(=O)c1c(-c2ccc(F)cc2)oc2cc3c(cc12)[C@@H](C)OCCN3S(C)(=O)=O [Compound B44] | – | – | EC50 (HCV 2a): 100 to 1000 nM |
| CNC(=O)c1c(-c2ccc(F)cc2)oc2cc3c(cc12)[C@H](C)OCCN3S(C)(=O)=O [Compound B45] | – | – | Inhibiton of HCV NS5B C316Y mutant (HCV NS5B C316Y mutant): †††; Inhibiton of HCV NS5B S365A mutant (HCV NS5B S365A mutant): †††; EC50 [1, 2]: 3 nM |
| C=C1CCCN(S(C)(=O)=O)c2cc3nc(-c4ccc(F)cc4)c(C(=O)NC)n3cc21 [Compound B61] | – | – | EC50 (HCV 2a): > 1000 nM |
| CNC(=O)c1c(-c2ccc(F)cc2)nc2cc3c(cn12)C(C)=CCCN3S(C)(=O)=O [Compound B62] | – | – | EC50 (HCV 2a): > 1000 nM |
| CS(=O)(=O)N1CCCCc2cc3c(-c4ncc[nH]4)c(-c4ccc(F)cc4)oc3cc21 [Compound B67] | – | – | EC50 (HCV NS5B S365A mutant): 200 to 1000 nM |
| C=C1CCCCN(S(C)(=O)=O)c2cc3oc(-c4ccc(F)cc4)c(C(=O)NC)c3cc21 [Compound B75] | – | – | EC50 (HCV 2a): 100 to 1000 nM |
| CNC(=O)c1c(-c2ccc(F)cc2)oc2cc3c(cc12)/C=C\CCCN3S(C)(=O)=O [Compound B114] | – | – | EC50 (HCV 1a): 100 to 1000 nM |
| CNC(=O)c1c(-c2ccc(F)cc2)oc2cc3c(cc12)C(C)N(CCO)CCN3S(C)(=O)=O (centres unmarked) [Compound B145] | – | – | EC50 (HCV NS5B S365A mutant): 200 to 1000 nM |
| CC1c2cc3c(-c4ncc[nH]4)c(-c4ccc(F)cc4)oc3cc2N(S(C)(=O)=O)CCN1C (centres unmarked) [Compound B171] | – | – | EC50 (HCV NS5B S365A mutant): 200 to 1000 nM |

| SMILES | EC50 [1, 3] | EC50 [1, 4] | further results |
| --- | --- | --- | --- |
| CC1OCCN(S(C)(=O)=O)c2cc3oc(-c4ccc(F)cc4)c(-c4ncc[nH]4)c3cc21 (centres unmarked) [Compound B197] | – | – | EC50 (HCV NS5B S365A mutant): 200 to 1000 nM |
| CC[C@H](C)[C@H](N)C(=O)OC[C@@H]1CN(S(C)(=O)=O)c2cc3oc(-c4ccc(F)cc4)c(C(=O)NC)c3cc2[C@H](C)O1 [Compound B269] | ≤ 10 nM | < 10 nM | – |
| CNC(=O)c1c(-c2ccc(F)cc2)oc2cc3c(cc12)[C@H](C)O[C@H](COC(=O)[C@@H](N)[C@@H](C)OC)CN3S(C)(=O)=O [Compound B270] | ≤ 10 nM | < 10 nM | – |
| CNC(=O)c1c(-c2ccc(F)cc2)oc2cc3c(cc12)[C@H](C)O[C@H](COC(=O)[C@@H](N)CC(C)C)CN3S(C)(=O)=O [Compound B271] | ≤ 10 nM | < 10 nM | – |
| CNC(=O)c1c(-c2ccc(F)cc2)oc2cc3c(cc12)[C@H](C)O[C@H](COC(=O)[C@@H](N)c1ccccc1)CN3S(C)(=O)=O [Compound B272] | ≤ 10 nM | < 10 nM | – |
| CNC(=O)c1c(-c2ccc(F)cc2)oc2cc3c(cc12)[C@H](C)O[C@H](COC(=O)[C@@H](C)N)CN3S(C)(=O)=O [Compound B273] | ≤ 10 nM | < 10 nM | – |
| CNC(=O)c1c(-c2ccc(F)cc2)oc2cc3c(cc12)[C@H](C)O[C@@H](CO)CN3S(C)(=O)=O [Compound B274] | – | 10 to 100 nM | – |
| CNC(=O)c1c(-c2ccc(F)cc2)oc2cc3c(cc12)[C@H](C)O[C@H](COC[C@H]1COC(C)(C)O1)CN3S(C)(=O)=O [Compound B275] | ≤ 10 nM | < 10 nM | – |
| CNC(=O)c1c(-c2ccc(F)cc2)oc2cc3c(cc12)[C@H](C)O[C@H](COC(=O)N1CCC(N2CCCCC2)CC1)CN3S(C)(=O)=O [Compound B276] | ≤ 10 nM | < 10 nM | – |
| CNC(=O)c1c(-c2ccc(F)cc2)oc2cc3c(cc12)[C@H](C)O[C@H](COC(=O)[C@@H](N)Cc1cnc[nH]1)CN3S(C)(=O)=O [Compound B277] | ≤ 10 nM | < 10 nM | – |
| CNC(=O)c1c(-c2ccc(F)cc2)oc2cc3c(cc12)[C@H](C)O[C@H](COC(=O)[C@@H](N)Cc1ccccc1)CN3S(C)(=O)=O [Compound B278] | ≤ 10 nM | < 10 nM | – |
| CNC(=O)c1c(-c2ccc(F)cc2)oc2cc3c(cc12)[C@H](C)O[C@H](COC[C@H](O)CO)CN3S(C)(=O)=O [Compound B279] | 10 to 100 nM | 10 to 100 nM | – |
| CNC(=O)c1c(-c2ccc(F)cc2)oc2cc3c(cc12)[C@H](C)O[C@H](COC(=O)[C@@H](N)[C@@H](C)O)CN3S(C)(=O)=O [Compound B280] | ≤ 10 nM | < 10 nM | – |
| CNC(=O)c1c(-c2ccc(F)cc2)oc2cc3c(cc12)[C@H](C)O[C@H](COC(=O)[C@@H](N)CO)CN3S(C)(=O)=O [Compound B281] | ≤ 10 nM | < 10 nM | – |
| CNC(=O)c1c(-c2ccc(F)cc2)oc2cc3c(cc12)[C@H](C)O[C@H](COC(=O)[C@H](N)C(C)C)CN3S(C)(=O)=O [Compound B282] | ≤ 10 nM | < 10 nM | – |
| CN/C(=N\O)c1c(-c2ccc(F)cc2)oc2cc3c(cc12)[C@H](C)O[C@H](CS(C)(=O)=O)CN3S(C)(=O)=O [Compound B283] | – | 100 to 1000 nM | – |
| CN/C(=N\OC)c1c(-c2ccc(F)cc2)oc2cc3c(cc12)[C@H](C)O[C@H](CS(C)(=O)=O)CN3S(C)(=O)=O [Compound B284] | – | 100 to 1000 nM | – |
| CNC(=O)c1c(-c2ccc(F)cc2)oc2cc3c(cc12)[C@H](C)O[C@H](CO[C@H]1CCOC1)CN3S(C)(=O)=O [Compound B285] | ≤ 10 nM | < 10 nM | – |
| CNC(=O)c1c(-c2ccc(F)cc2)oc2cc3c(cc12)[C@H](C)O[C@H](CO[C@@H]1CCOC1)CN3S(C)(=O)=O [Compound B286] | ≤ 10 nM | < 10 nM | – |
| CNC(=O)c1c(-c2ccc(F)cc2)oc2cc3c(cc12)[C@H](C)O[C@@H](CS(C)(=O)=O)CN3S(C)(=O)=O [Compound B287] | 10 to 100 nM | 10 to 100 nM | – |
